Measured values: patent publication US12582641B2, “Sulfur-containing compound based on glutarimide skeleton and application thereof” (SHANGHAITECH UNIVERSITY, priority 2019, dated 2026)

System: MM.1S cells
Assay: Proliferation inhibition (IC50) in MM.1S cells, cell viability assay
Conditions: Homo sapiens, MM1.S, 72 h, read-out: IC50 (nM), proliferation inhibitory activity of MM.1S cells (half inhibitory concentration)
Description: MM.1S (B lymphoblast) was purchased from ATCC. Complete medium was RPMI1640 supplemented with 10% FBS and 1% Penicillin-Streptomycin. The cells used were identified as correct cells by STR cells, and were negative for mycoplasma through routine inspections.
IC50 values of the compounds of the present disclosure were measured using Cell Titer Blue, Cell Titer GLO, or WST reagent from Promega Company. Assay details are as follows: Cells were seeded in 100 μL RPMI1640 complete medium containing serum at a density of 15,000 cells/well. After 24 h, the inoculated cells were treated with diluted commercial inhibitor and the compounds of the present disclosure to be tested after serial dilution. After the cells were treated with the compounds of the present disclosure to be tested for 72 h, cell viability was determined after adding the cell viability detection kit listed above according to the reagent operating instructions. The negative control was DMSO, and the positive control was a commercial inhibitor, both of which were used to treat the cells through the same method as that of the compounds of the present disclosure. The growth inhibition of the compounds of the present disclosure on cells was plotted by Prism Graphpad software, and the IC50 values of the compounds of the present disclosure were calculated therefrom.
We tested the activities of the compounds of the present invention in MM.1S cell (which overexpressed IKZF1/3 and is highly sensitive to immunomodulatory drugs) through a dose-dependent manner. The cells were treated with the compounds of the present invention at 10 different successively decreasing concentrations (starting at the highest concentration of 10 μM; 5-fold serial dilutions) for 72 h, and then the cell viability determination was performed in accordance with CCK-8 reagent operating instructions. The experiment was repeated more than three times.

IC50 | Compound
0.059 nM | CN(CCCCCCSc1cccc2c1CN(C1CCC(=O)NC1=O)C2=O)CC12CC3CC(CC(C3)C1)C2 (stereo not shown) [SIAIS1221127, 3-(4-((6-((adamantan-1-ylmethyl)(methyl)amino)hexyl)thio)-1-oxoisoindolin-2-yl)piperidine-2,6-dione]
0.021 nM | CN(CCCCCCCSc1cccc2c1CN(C1CCC(=O)NC1=O)C2=O)[C@H]1C[C@H]2CC[C@]1(C)C2(C)C (stereo partly drawn) [SIAIS1221129, 3-(4-((7-(methyl((1R,2S,4R)-1,7,7-trimethylbicyclo[2.2.1]heptan-2-yl)amino)heptyl)thio)-1-oxoisoindolin-2-yl)piperidine-2,6-dione]
0.458 nM | CC1(C)[C@@H]2CC[C@@]1(C)[C@@H](NCc1ccc(CSc3cccc4c3C(=O)N(C3CCC(=O)NC3=O)C4=O)cc1)C2 (stereo partly drawn) [SIAIS1221147, 2-(2,6-dioxopiperidin-3-yl)-4-((4-((((1R,2S,4R)-1,7,7-trimethylbicyclo[2.2.1]heptan-2-yl)amino)methyl)benzyl)thio)isoindoline-1,3-dione]
21.9 nM | CN1C(=O)CCC(N2Cc3c(SCCCCCCCNC45CC6CC(CC(C6)C4)C5)cccc3C2=O)C1=O (stereo not shown) [SIAIS1221149, 3-(4-((7-(adamantan-1-ylamino)heptyl)thio)-1-oxoisoindolin-2-yl)-1-methylpiperidine-2,6-dione]
0.938 nM | O=C1CCC(N2C(=O)c3cccc(SCCCCCCCNC4CCCCC4)c3C2=O)C(=O)N1 (stereo not shown) [SIAIS1221175, 4-((7-(cyclohexylamino)heptyl)thio)-2-(2,6-dioxopiperidin-3-yl)isoindoline-1,3-dione]
0.258 nM | CC1(C)[C@@H]2CC[C@@]1(C)[C@@H](NCCCCCCCSc1cccc3c1C(=O)N(C1CCC(=O)NC1=O)C3=O)C2 (stereo partly drawn) [SIAIS1221177, 2-(2,6-dioxopiperidin-3-yl)-4-((7-(((1R,2S,4R)-1,7,7-trimethylbicyclo[2.2.1]heptan-2-yl)amino)heptyl)thio)isoindoline-1,3-dione]
0.621 nM | O=C1CCC(N2C(=O)c3cccc(SCc4ccc(CNC56CC7CC(CC(C7)C5)C6)cc4)c3C2=O)C(=O)N1 (stereo not shown) [SIAIS1222013, 4-((4-(((adamantan-1-yl)amino)methyl)benzyl)thio)-2-(2,6-dioxopiperidin-3-yl)isoindoline-1,3-dione]
0.21 nM | CN(CCCCCCCSc1cccc2c1C(=O)N(C1CCC(=O)NC1=O)C2=O)C12CC3CC(CC(C3)C1)C2 (stereo not shown) [SIAIS1222029, 4-((7-((adamantan-1-yl)(methyl)amino)heptyl)thio)-2-(2,6-dioxopiperidin-3-yl)isoindoline-1,3-dione]
2.12 nM | O=C1CCC(N2C(=O)c3cccc(SCCCCCCNCC45CC6CC(CC(C6)C4)C5)c3C2=O)C(=O)N1 (stereo not shown) [SIAIS1222071, 4-((6-(((adamantan-1-yl)methyl)amino)hexyl)thio)-2-(2,6-dioxopiperidin-3-yl)isoindoline-1,3-dione]
0.006 nM | O=C1CCC(N2Cc3c(SCCCCCCCNC4CC5(CCC5)C4)cccc3C2=O)C(=O)N1 (stereo not shown) [SIAIS1222077, 3-(1-oxo-4-((7-(spiro[3.3]heptan-2-ylamino)heptyl)thio)isoindolin-2-yl)piperidine-2,6-dione]
0.135 nM | CC(C)(C)NCCCCCCCSc1cccc2c1CN(C1CCC(=O)NC1=O)C2=O (stereo not shown) [SIAIS1222079, 3-(4-((7-(tert-butylamino)heptyl)thio)-1-oxoisoindolin-2-yl)piperidine-2,6-dione]
0.029 nM | O=C1CCC(N2Cc3c(SCc4ccc(CNCC56CC7CC(CC(C7)C5)C6)cc4)cccc3C2=O)C(=O)N1 (stereo not shown) [SIAIS1222085, 3-(4-((4-(((adamantan-1-ylmethyl)amino)methyl)benzyl)thio)-1-oxoisoindolin-2-yl)piperidine-2,6-dione]
0.409 nM | O=C1CCC(N2C(=O)c3cccc(SCCCCCNC45CC6CC(CC(C6)C4)C5)c3C2=O)C(=O)N1 (stereo not shown) [SIAIS1222097, 4-((5-((adamantan-1-yl)amino)pentyl)thio)-2-(2,6-dioxopiperidin-3-yl)isoindoline-1,3-dione]
